Results published in patent US6472348B1, “Pyridone derivatives and herbicides” (Kumiai Chemical Industry Co., Ltd., priority 1996, dated 2002).

Assays:
[1] = test system: rice flatsedge (Ci); experiment: Test Example 2: herbicidal effects by upland field soil treatment; assay type: in vivo; conditions: 100 g of the active ingredient per 10 ares;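 also: grade of growth control; 5 = at least 90%; 4 = 70 to 90%; 3 = 50 to 70%; 2 = 30 to 50%; 1 = 10 to 30%; 0 = under 10%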
Text: (Test on Herbicidal Effects by Upland Field Soil Treatment)

[2] = test system: barnyardgrass (Ec); experiment: Test Example 3: herbicidal effects by upland field foliage treatment; assay type: in vivo; design: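 grade of growth control; 5 = at least 90%; 4 = 70 to 90%; 3 = 50 to 70%; 2 = 30 to 50%; 1 = 10 to 30%; 0 = under 10%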
In short: (§1)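 Scoring used a standard effect scale on the 14th day post-treatment, with plants held in a greenhouse throughout. Foliar application was made to weeds raised from seed in sand-filled pots for 2 weeks.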

[3] = test system: pale smartweed (Po); experiment: as above; assay type: in vivo; design: scale not given here
In short: as §1

[4] = test system: China jute (Ab); experiment: Test Example 4: crop plant selectivity by upland field soil treatment (cotton), herbicidal effects; assay type: in vivo; design: scale not given here; conditions: evaluated 21st day after application
In short: (§2)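 Upland soil-treatment selectivity test: scoring on day 21 post-application in a greenhouse, rating crop phytotoxicity on cotton and herbicidal effect on co-sown weeds. Seeds were sown in sand-filled pots and covered with soil before treatment.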

[5] = test system: common lambsquarters (Ch); experiment: as above; assay type: in vivo; design: scale not given here; conditions: evaluated 21st day after application
In short: as §2

[6] = test system: green foxtail (Se); experiment: as above; assay type: in vivo; design: scale not given here; conditions: evaluated 21st day after application
In short: as §2

[7] = test system: pale smartweed (Po); experiment: as above; assay type: in vivo; design: scale not given here; conditions: evaluated 21st day after application
In short: as §2

[8] = test system: slender amaranth (Am); experiment: as above; assay type: in vivo; design: scale not given here; conditions: evaluated 21st day after application
In short: as §2

[9] = test system: corn (Ze); experiment: Test Example 7: crop plant selectivity by upland field soil treatment (corn), phytotoxicity; assay type: in vivo; design: scale not given here; conditions: 21st day after application
In short: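 Scoring of weed kill and corn injury was done on day 21 after the application, using defined standards. Before that, sown seeds in sand-filled pots were covered with soil, treated, and grown in a greenhouse.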

[10] = test system: wheat (Tr); experiment: Test Example 9: crop plant selectivity by upland field foliage treatment (wheat), phytotoxicity; conditions: dose 1.6 g ai/10a, 14th day after treatment;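 also: grade of crop injury; 5 = at least 90%; 4 = 70 to 90%; 3 = 50 to 70%; 2 = 30 to 50%; 1 = 10 to 30%; 0 = under 10%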
In short: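 Read-out: weed control and wheat injury, rated by a defined scoring standard 14 days after foliar application.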

[11] = evaluated on the 21st day after application
[12] = 100 g active ingredient per 10 ares, evaluated 14th day after treatment
[13] = 21st day after the application, index 0-5 of Table 47
[14] = 100 g of the active ingredient per 10 ares, evaluated on the 14th day after treatment

Structure (SMILES)	Herbicidal effects Ci [1, 11]	Herbicidal effects Ec [2, 12]	Herbicidal effects Po [3, 12]	Herbicidal effects Ab ([4]; dose 1.6 g ai/10 a)	Herbicidal effects Ab ([4]; dose 6.3 g ai/10 a)	Herbicidal effects Ch ([5]; dose 1.6 g ai/10 a)	Herbicidal effects Ch ([5]; dose 6.3 g ai/10 a)	Herbicidal effects Se ([6]; dose 1.6 g ai/10 a)	Herbicidal effects Se ([6]; dose 6.3 g ai/10 a)	Herbicidal effects Po ([7]; dose 1.6 g ai/10 a)	Herbicidal effects Po ([7]; dose 6.3 g ai/10 a)	Herbicidal effects Am ([8]; dose 1.6 g ai/10 a)	Herbicidal effects Am ([8]; dose 6.3 g ai/10 a)	Herbicidal effects Ci [1, 13]	Herbicidal effects Ec [2, 14]	Herbicidal effects Po [3, 14]	Phytotoxicity Ze ([9]; dose 1.6 g ai/10a)	Phytotoxicity Ze ([9]; dose 6.3 g ai/10a)	Phytotoxicity Tr [10]
C#CC(C)Oc1cc(-c2cn(C)c(C(F)(F)F)cc2=O)c(F)cc1Cl (racemic) [Compound 6-10]	5	5	5	4	5	5	5	4	5	5	5	5	5						
COc1cc(-c2ccc(C(F)(F)F)n(C)c2=O)c(F)cc1Cl [1-15]				5	5	5	5	5	5	5	5	5	5	5	5	5	1		
C=CCOc1cc(-c2ccc(C(F)(F)F)n(C)c2=O)c(F)cc1Cl [1-16]				5	5	5	5	5	5	5	5	5	5	5	5	5	0	1	2
C#CC(C)Oc1cc(-c2ccc(C(F)(F)F)n(C)c2=O)c(F)cc1Cl (centres unmarked) [1-17]				5	4	5	5	5	5	5	5	5	5	5	5	5	1	1	
C#CCOc1cc(-c2ccc(C(F)(F)F)n(C)c2=O)c(F)cc1Cl [1-18]				5	5	5	5	5	5	5	5	5	5	5	5	5	1	2	
Cn1c(C(F)(F)F)ccc(-c2cc(OCC#N)c(Cl)cc2F)c1=O [1-25]					5		5		5		5		5	5	5	5		1	2
C#CCOc1cc(-c2ccc(C(F)(F)F)n(C)c2=O)c(Cl)cc1Cl [1-30]				5	5	5	5	5	5	5	5	5	5	5	5	5	1	2	2
CC(C)Sc1cc(-c2ccc(C(F)(F)F)n(C)c2=O)c(F)cc1Cl [1-43]					4		5		5		5		5	5	5	5		1	2
Cc1cc(-c2ccc(C(F)(F)F)n(C)c2=O)c(F)cc1Cl [1-90]					5		5		5		5		5	5	5	5	1	2	
Cn1c(C(F)(F)F)ccc(-c2cc(Cl)c(Cl)cc2F)c1=O [1-136]					5		5		5		5		5	5	5	5	1		
Cn1c(C(F)(F)F)ccc(-c2cc(OCC(F)(F)F)c(Cl)cc2F)c1=O [1-155]				5	5	5	5	5	5	5	5	5	5	5	5	5	0	0	
CCOCOc1cc(-c2ccc(C(F)(F)F)n(C)c2=O)c(F)cc1Cl [1-181]	5				5		5		5		5		5		5	5			2
C=CCN1C(=O)COc2cc(F)c(-c3ccc(C(F)(F)F)n(C)c3=O)cc21 [Compound 2-7]	5	5	5	5	5	4	5	4	5	5	5	5	5						
C#CCN1C(=O)COc2cc(F)c(-c3cn(C)c(C(F)(F)F)cc3=O)cc21 [Compound 7-1]	5	5	5		5				5		5		5						2
CON=Cc1cc(-c2ccc(C(F)(F)F)n(C)c2=O)c(F)cc1Cl [Compound No. 1-72, 5-(1-methyl-6-trifluoromethyl-2(1H)-pyridon-3-yl)-2-chloro-4-fluorobenzaldehydeoxime-O-methyl ether]				5	5	5	5	5	5	5	5	5	5	5	5	5	0		
C#CCN1C(=O)COc2cc(F)c(-c3ccc(C(F)(F)F)n(C)c3=O)cc21 [Compound No. 2-1, 3-[7-fluoro-2,3-dihydro-4-(2-propynyl)-1,4-benzoxazin-3-on-6-yl]-1-methyl-6-trifluoromethyl-2(1H)-pyridone]	5	5	5	5		5		5		5		5							
C#CCn1c(=O)sc2cc(F)c(-c3ccc(C(F)(F)F)n(C)c3=O)cc21 [Compound No. 3-1, 3-[6-fluoro-3-(2-propynyl)-benzothiazolin-2-on-5-yl]-1-methyl-6-trifluoromethyl-2(1H)-pyridone]	5	5	5	5	5	5	5	5	5	5	5	5	5				2	2	
COCc1cc2c(-c3ccc(C(F)(F)F)n(C)c3=O)c(F)cc(Cl)c2o1 [Compound No. 4-4, 3-(7-chloro-5-fluoro-2-methoxymethylbenzofuran-4-yl)-1-methyl-6-trifluoromethyl-2-(1H)-pyridone]	5	5	5	5	5	5	5	5	5	5	5	5	5				1	2	
Cn1cc(-c2cc(Oc3ccccc3)c(Cl)cc2F)c(=O)cc1C(F)(F)F [Compound No. 6-19, 5-(4-chloro-2-fluoro-5-phenoxyphenyl)-1-methyl-2-trifluoromethyl-4(1H)-pyridone]	5	5	5	3	5	5	5	5	5	5	5	5	5						
Cc1cc2c(-c3cn(C)c(C(F)(F)F)cc3=O)c(F)cc(Cl)c2o1 [Compound No. 9-1, 5-(7-chloro-5-fluoro-2-methylbenzofuran-4-yl)-1-methyl-2-trifluoromethyl-4(1H)-pyridone]	5	5	5	5	5	5	5	5	5	4	5	5	5						
